Columns and labels:
[1] = target: DNA polymerase I, thermostable (Thermus aquaticus, UniProt P19821); experiment: Tested for inhibitory activity against Taq DNA polymerase
[2] = target: Telomerase reverse transcriptase (Homo sapiens, UniProt O14746); experiment: Tested for inhibitory activity against Telomerase in telomerase repeat amplification protocol (TRAP) assay
Telomerase reverse transcriptase, sequence (O14746 whole entry): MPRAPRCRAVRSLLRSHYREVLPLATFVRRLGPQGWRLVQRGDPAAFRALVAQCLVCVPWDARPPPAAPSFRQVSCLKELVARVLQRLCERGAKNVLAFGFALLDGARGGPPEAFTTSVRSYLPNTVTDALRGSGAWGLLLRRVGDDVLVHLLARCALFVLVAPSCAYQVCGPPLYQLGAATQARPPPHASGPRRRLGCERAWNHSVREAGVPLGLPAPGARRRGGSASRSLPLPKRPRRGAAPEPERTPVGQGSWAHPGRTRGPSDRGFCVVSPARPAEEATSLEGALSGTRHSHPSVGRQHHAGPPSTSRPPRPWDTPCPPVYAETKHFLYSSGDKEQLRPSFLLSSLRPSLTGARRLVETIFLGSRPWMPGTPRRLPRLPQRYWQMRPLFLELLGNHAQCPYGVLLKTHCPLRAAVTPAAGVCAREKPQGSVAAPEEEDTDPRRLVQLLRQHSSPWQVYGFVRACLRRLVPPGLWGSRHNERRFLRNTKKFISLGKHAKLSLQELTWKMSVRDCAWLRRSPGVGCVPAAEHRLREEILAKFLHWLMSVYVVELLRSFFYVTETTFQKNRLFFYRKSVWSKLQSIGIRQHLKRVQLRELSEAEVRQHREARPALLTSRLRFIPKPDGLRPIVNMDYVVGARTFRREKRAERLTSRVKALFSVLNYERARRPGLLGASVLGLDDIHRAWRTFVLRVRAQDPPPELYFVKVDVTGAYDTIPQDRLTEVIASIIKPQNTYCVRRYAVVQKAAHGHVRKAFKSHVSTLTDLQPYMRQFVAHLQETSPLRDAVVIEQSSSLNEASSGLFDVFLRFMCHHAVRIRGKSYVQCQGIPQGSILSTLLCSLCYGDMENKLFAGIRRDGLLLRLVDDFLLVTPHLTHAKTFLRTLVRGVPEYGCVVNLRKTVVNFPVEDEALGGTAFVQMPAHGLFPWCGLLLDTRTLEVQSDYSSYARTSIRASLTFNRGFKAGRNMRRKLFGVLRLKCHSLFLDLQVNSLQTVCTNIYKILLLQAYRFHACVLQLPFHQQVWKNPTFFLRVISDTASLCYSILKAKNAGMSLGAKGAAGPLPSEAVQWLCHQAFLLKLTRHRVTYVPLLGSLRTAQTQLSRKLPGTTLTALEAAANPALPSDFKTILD

DNA polymerase I, thermostable, sequence (P19821 whole entry): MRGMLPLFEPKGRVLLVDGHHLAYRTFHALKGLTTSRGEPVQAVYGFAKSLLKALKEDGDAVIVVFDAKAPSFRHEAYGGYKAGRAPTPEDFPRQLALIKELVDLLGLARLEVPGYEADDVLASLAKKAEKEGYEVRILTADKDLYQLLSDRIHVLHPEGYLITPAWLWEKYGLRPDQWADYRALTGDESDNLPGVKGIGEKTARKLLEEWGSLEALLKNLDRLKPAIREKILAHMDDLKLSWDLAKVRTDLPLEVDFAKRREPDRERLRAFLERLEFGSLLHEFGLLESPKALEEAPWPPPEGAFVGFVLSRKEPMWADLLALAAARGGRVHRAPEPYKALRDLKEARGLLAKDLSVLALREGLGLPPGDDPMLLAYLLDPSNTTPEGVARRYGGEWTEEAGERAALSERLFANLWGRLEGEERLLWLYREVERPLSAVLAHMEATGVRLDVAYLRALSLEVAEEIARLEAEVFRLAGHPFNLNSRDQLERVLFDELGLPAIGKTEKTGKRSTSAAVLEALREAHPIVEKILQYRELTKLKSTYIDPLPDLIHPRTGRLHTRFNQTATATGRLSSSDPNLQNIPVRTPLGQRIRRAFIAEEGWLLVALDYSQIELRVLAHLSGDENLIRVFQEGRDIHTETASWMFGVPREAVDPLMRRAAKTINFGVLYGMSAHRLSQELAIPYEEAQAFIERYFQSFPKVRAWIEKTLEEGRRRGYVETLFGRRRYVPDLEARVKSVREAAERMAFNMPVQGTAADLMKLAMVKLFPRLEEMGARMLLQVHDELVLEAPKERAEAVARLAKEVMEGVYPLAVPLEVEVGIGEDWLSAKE

Compound | IC50 [1] [µM] | IC50 [2] [µM]
CN(C)CCCNc1nc2ccccc2c2[nH]c3c4cc([N+](=O)[O-])ccc4ccc3c12 | 5 | 0.5
COc1ccc2ccc3c([nH]c4c5ccccc5nc(NCCN(C)C)c34)c2c1 | > 10 | 9.8
COc1ccc2ccc3c([nH]c4c5ccccc5nc(NCCCN(C)C)c34)c2c1 | 2.2 | 1.1
COc1ccc2c(ccc3c2[nH]c2c4ccccc4nc(NCCCN(C)C)c32)c1 | 0.9 | 1
